Like-named read-outs stand apart in the source and are kept apart here.
How the values were obtained:
[1] = biological target: T1, Recombinant STAT3 protein (STAT3 (G127-I722)) (Homo sapiens, UniProt P40763); assay: STAT3 Fluorescence Polarization (FP) Assay; assay type: binding; settings: probe 5-FAM-GpYLPQTV-NH2 2 nM, 45-minute incubation
T1 construct: Recombinant STAT3 protein (STAT3 (G127-I722))
Method in brief: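 In this competition FP format, STAT3 residues G127-I722 (25 nM) and 2 nM 5-FAM-GpYLPQTV-NH2 met test compounds for 45 min at room temperature. IC50 values result from fitting mP signal against log concentration by nonlinear regression.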

[2] = biological target: T2, Recombinant STAT6 protein (STAT6 (W123-T658)) (Homo sapiens, UniProt P42226); assay: STAT6 Fluorescence Polarization (FP) Assay; assay type: binding; settings: 45-minute incubation
T2 construct: Recombinant STAT6 protein (STAT6 (W123-T658))
T2 sequence (P42226 123-658): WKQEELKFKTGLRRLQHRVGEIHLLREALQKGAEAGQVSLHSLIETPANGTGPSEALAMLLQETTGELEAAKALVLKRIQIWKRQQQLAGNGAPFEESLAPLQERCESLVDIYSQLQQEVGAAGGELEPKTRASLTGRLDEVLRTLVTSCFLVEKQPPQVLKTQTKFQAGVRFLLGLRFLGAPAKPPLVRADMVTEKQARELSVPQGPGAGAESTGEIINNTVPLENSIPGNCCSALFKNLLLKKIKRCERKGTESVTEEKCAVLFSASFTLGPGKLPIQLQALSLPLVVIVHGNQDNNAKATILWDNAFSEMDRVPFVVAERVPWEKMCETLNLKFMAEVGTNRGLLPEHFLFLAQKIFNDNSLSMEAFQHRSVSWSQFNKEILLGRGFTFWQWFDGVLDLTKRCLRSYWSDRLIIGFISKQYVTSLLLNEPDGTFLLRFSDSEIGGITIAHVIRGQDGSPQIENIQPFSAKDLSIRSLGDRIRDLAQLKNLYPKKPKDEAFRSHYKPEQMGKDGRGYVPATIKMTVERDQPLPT
Method in brief: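 Fluorescence polarization (mP) read-out: 250 nM STAT6 (W123-T658) plus 2 nM 5-FAM phosphotyrosine peptide, 45 min, room temperature, 1% DMSO. IC50 by nonlinear fit of mP against log compound concentration.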

[3] = STAT3 (G127-I722) 25 nM, read-out: STAT3 (FP assay IC50 class)
[4] = STAT6 (W123-T658) 250 nM, probe 5-FAM-Ap[…]-NH2 2 nM, read-out: STAT6 (FP assay IC50 class)
[5] = STAT3 25 nM, read-out: STAT3 (FP assay IC50)
[6] = STAT6 250 nM, probe 5-FAM-Ap[…]-NH2 2 nM, read-out: STAT6 (FP assay IC50)

T1 sequence (P40763 127-722): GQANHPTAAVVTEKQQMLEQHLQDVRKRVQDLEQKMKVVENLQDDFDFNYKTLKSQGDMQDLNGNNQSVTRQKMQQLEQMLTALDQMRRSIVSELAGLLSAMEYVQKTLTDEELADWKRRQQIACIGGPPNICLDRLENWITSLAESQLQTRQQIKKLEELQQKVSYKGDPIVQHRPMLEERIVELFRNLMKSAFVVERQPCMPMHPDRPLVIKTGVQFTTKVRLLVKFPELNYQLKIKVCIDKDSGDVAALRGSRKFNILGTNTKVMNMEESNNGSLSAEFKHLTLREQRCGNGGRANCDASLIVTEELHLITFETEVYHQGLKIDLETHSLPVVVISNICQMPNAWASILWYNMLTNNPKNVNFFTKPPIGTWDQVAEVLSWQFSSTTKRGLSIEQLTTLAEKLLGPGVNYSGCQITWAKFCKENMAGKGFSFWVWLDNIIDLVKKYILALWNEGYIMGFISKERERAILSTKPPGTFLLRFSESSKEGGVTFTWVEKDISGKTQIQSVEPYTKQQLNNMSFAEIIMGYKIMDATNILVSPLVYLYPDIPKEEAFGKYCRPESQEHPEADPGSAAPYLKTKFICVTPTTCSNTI

| SMILES | IC50 [1, 3] [µM] | IC50 [2, 4] [µM] | IC50 [1, 5] [µM] | IC50 [2, 6] [µM] | IC50 ([2]; STAT6 (W123-T658) 250 nM, probe 5-FAM-ApYKPFQDLI-NH2 2 nM, read-out: STAT6 (FP assay IC50 class)) [µM] |
| --- | --- | --- | --- | --- | --- |
| Cn1ncc(C2CCN(C(=O)[C@@H]3CC[C@@H]4CCCC[C@H](NC(=O)c5ccc6ccc(C(F)P(=O)(O)O)cc6c5)C(=O)N43)C2)cc1=O (stereo partly drawn) [Compound 902, (fluoro(7-(((3S,6S,10aS)-3-(3-(1-methyl-6-oxo-1,6-dihydropyridazin-4-yl)pyrrolidine-1-carbonyl)-5-oxodecahydropyrrolo [1,2-a]azocin-6-yl)carbamoyl)naphthalen-2-yl)methyl) phosphonic acid] | 1 to 10 | 3 to 30 | – | – | – |
| C[C@@H]1C[C@H]2CC[C@@H](C(=O)N3CC(c4cccnc4)C3)N2C(=O)[C@@H](NC(=O)c2cc3cc(C(F)(F)P(=O)(O)O)ccc3s2)C1 (single isomer, unassigned) [Compound 110, (difluoro(2-(((3S,6S,8R,9aR)-8-methyl-5-oxo-3-(3-(pyridin-3-yl)azetidine-1-carbonyl)octahydro-1H-pyrrolo[1,2-a]azepin-6-yl)carbamoyl)benzo[b]thiophen-5-yl)methyl) phosphonic acid or (difluoro(2-(((3S,6S,8S,9aR)-8-methyl-5-oxo-3-(3-(pyridin-3-yl)azetidine-1-carbonyl)octahydro-1H-pyrrolo[1,2-a]azepin-6-yl)carbamoyl)benzo[b]thiophen-5-yl)methyl) phosphonic acid] | – | – | < 0.1 | 3 to 30 | – |
| O=C(N[C@H]1CCCC[C@H]2CC[C@@H](C(=O)N3C(=O)N(c4cccnc4)C(=O)C34CC4)N2C1=O)c1ccc2ccc(CP(=O)(O)O)cc2c1 [Compound 893, ((7-(((3S,6S,10aS)-3-(5,7-dioxo-6-(pyridin-3-yl)-4,6-diazaspiro[2.4]heptane-4-carbonyl)-5-oxodecahydropyrrolo[1,2-a]azocin-6-yl)carbamoyl)naphthalen-2-yl)methyl) phosphonic acid] | 1 to 10 | 0.3 to 3 | – | – | – |
| O=C(CCC(F)(F)F)NC1(c2ccccn2)CN(C(=O)[C@@H]2CC[C@@H]3CCCC[C@H](NC(=O)c4cc5cc(C(F)(F)P(=O)(O)O)ccc5s4)C(=O)N32)C1 [Compound 124, (difluoro(2-(((3S,6S, 10aS)-5-oxo-3-(3-(pyridin-2-yl)-3-(4,4,4-trifluoro-butanamido)azetidine-1-carbonyl)decahydro-pyrrolo [1,2-a]azocin-6-yl)carbamoyl)benzo[b]thiophen-5-yl)methyl) phosphonic acid] | – | – | < 0.1 | 3 to 30 | – |
| O=C(N[C@H]1CCCC[C@H]2CC[C@@H](C(=O)N3CC[C@@H](c4ccccc4)C3)N2C1=O)c1cc2cc(C(F)(F)P(=O)(O)O)ccc2s1 [Compound 82, (difluoro(2-(((3S,6S,10aS)-5-oxo-3-((S)-3-phenylpyrrolidine-1-carbonyl)decahydropyrrolo [1,2-a]azocin-6-yl)carbamoyl)benzo[b]thiophen-5-yl)methyl) phosphonic acid] | – | – | 0.1 to 1 | ≤ 0.3 | – |
| Cn1cnnc1C1CN(C(=O)[C@@H]2CC[C@@H]3CCC[C@H](NC(=O)c4cc5cc(C(F)(F)P(=O)(O)O)ccc5s4)C(=O)N32)CCO1 (stereo partly drawn) [Compound 1126, (difluoro(2-(((3S,6S,9aS)-3-(2-(4-methyl-4H-1,2,4-triazol-3-yl)morpholine-4-carbonyl)-5-oxooctahydro-1H-pyrrolo[1,2-a]azepin-6-yl)carbamoyl)benzo[b]thiophen-5-yl)methyl)phosphonic acid] | 0.1 to 1 | 0.3 to 3 | – | – | – |
| CC(C)[C@@H]1CC[C@H](NC(=O)c2cc3cc(C(F)P(=O)(O)O)ccc3s2)C(=O)N2[C@H](CC[C@H]2C(=O)N2C[C@H](c3ccccc3)[C@@H](C#N)C2)C1 (single isomer, unassigned) [Compound 212] | 1 to 10 | – | – | – | ≤ 0.3 |
| O=C(N[C@H]1CCCCC[C@H]2CC[C@@H](C(=O)N3CC(C(=O)N4CCOCC4)C3)N2C1=O)c1cc2cc(C(F)(F)P(=O)(O)O)ccc2s1 [Compound 773, (difluoro(2-(((3S,6S,11aS)-3-(3-(morpholine-4-carbonyl)azetidine-1-carbonyl)-5-oxodecahydro-1H-pyrrolo[1,2-a]azonin-6-yl)carbamoyl)benzo [b]thiophen-5-yl)methyl) phosphonic acid] | 0.1 to 1 | > 30 | – | – | – |

Now from value to compound, other results behind:

| IC50 [1, 3] [µM] | IC50 [2, 4] [µM] | IC50 [1, 5] [µM] | IC50 [2, 6] [µM] | SMILES | IC50 ([2]; STAT6 (W123-T658) 250 nM, probe 5-FAM-ApYKPFQDLI-NH2 2 nM, read-out: STAT6 (FP assay IC50 class)) [µM] |
| --- | --- | --- | --- | --- | --- |
| 0.1 to 1 | 3 to 30 | – | – | CC(c1ccc2sc(C(=O)N[C@H]3CCC[C@H]4CC[C@@H](C(=O)N5CC(c6cccnc6)C5)N4C3=O)cc2c1)P(=O)(O)O (stereo partly drawn) [Compound 896, (1-(2-(((3S,6S,9aS)-5-oxo-3-(3-(pyridin-3-yl)azetidine-1-carbonyl)octahydro-1H-pyrrolo[1,2-a]azepin-6-yl)carbamoyl)benzo [b]thiophen-5-yl)ethyl) phosphonic acid] | – |
| 0.1 to 1 | 3 to 30 | – | – | COC1(c2cncnc2)CN(C(=O)[C@@H]2CC[C@@H]3CCC[C@H](NC(=O)c4cc5cc(C(F)(F)P(=O)(O)O)ccc5s4)C(=O)N32)C1 [Compound 723, (difluoro(2-(((3S,6S,9aS)-3-(3-methoxy-3-(pyrimidin-5-yl)azetidine-1-carbonyl)-5-oxooctahydro-1H-pyrrolo[1,2-a]azepin-6-yl)carbamoyl)benzo [b]thiophen-5-yl)methyl) phosphonic acid] | – |
| 0.1 to 1 | 3 to 30 | – | – | O=C(N[C@H]1CCCC[C@H]2CC[C@@H](C(=O)N3CC(N4CCS(=O)(=O)CC4)C3)N2C1=O)c1cc2cc(C(F)P(=O)(O)O)ccc2s1 (stereo partly drawn) [Compound 573, ((2-(((3S,6S,10aS)-3-(3-(1,1-dioxidothiomorpholino)azetidine-1-carbonyl)-5-oxodecahydropyrrolo[1,2-a]azocin-6-yl)carbamoyl)benzo[b]thiophen-5-yl)fluoromethyl)phosphonic acid] | – |
| < 0.1 | 0.3 to 3 | – | – | O=C(N[C@H]1CCC[C@H]2CC[C@@H](C(=O)N3CC(c4cnccc4O)C3)N2C1=O)c1cc2cc(C(F)P(=O)(O)O)ccc2s1 (stereo partly drawn) [Compound 540, (fluoro(2-(((3S,6S,9aS)-3-(3-(4-hydroxypyridin-3-yl)azetidine-1-carbonyl)-5-oxooctahydro-1H-pyrrolo[1,2-a]azepin-6-yl)carbamoyl)benzo[b]thiophen-5-yl)methyl)phosphonic acid] | – |
| 0.1 to 1 | 0.3 to 3 | – | – | O=C(N[C@H]1CCC[C@H]2CC[C@@H](C(=O)NCc3ccc4[nH]c(=O)[nH]c4c3)N2C1=O)c1cc2cc(C(F)(F)P(=O)(O)O)ccc2s1 [Compound 1117, (difluoro(2-(((3S,6S,9aS)-5-oxo-3-(((2-oxo-2,3-dihydro-1H-benzo[d]imidazol-5-yl)methyl)carbamoyl)octahydro-1H-pyrrolo[1,2-a]azepin-6-yl)carbamoyl)benzo[b]thiophen-5-yl)methyl)phosphonic acid] | – |
| < 0.1 | 3 to 30 | – | – | O=C(N[C@H]1CCC[C@H]2CC[C@@H](C(=O)N3CC(c4cnccc4Oc4ccccc4)C3)N2C1=O)c1cc2cc(C(F)P(=O)(O)O)ccc2s1 (stereo partly drawn) [Compound 699, (fluoro(2-(((3S,6S,9aS)-5-oxo-3-(3-(4-phenoxypyridin-3-yl)azetidine-1-carbonyl)octahydro-1H-pyrrolo[1,2-a]azepin-6-yl)carbamoyl)benzo [b]thiophen-5-yl)methyl) phosphonic acid] | – |
